Measurements: patent US4701448A, “Metal salt of organic phosphate and an antihyperlipemic agent containing the same” (Asahi Denka Kogyo Kabushiki Kaisha, priority 1985, dated 1987)
Where a name gives a salt, the structure may show the parent alone.

How the values were obtained:
[1] = Water solubility, hygroscopic property and stability (statements in words); assay type: physicochemical
serum cholesterol = experiment: Serum cholesterol lowering activity, oral, rabbit, 5 successive days; assay type: in vivo; settings: two times a day, 5 days
Experimental: (1) Serum cholesterol lowering activity the metal salt of organic phosphate according to the present invention was orally administered to a rabbit (body weight of about 3 Kg) two times a day (at 9:00 a.m. and 4:00 p.m.) for 5 successive days. After 5 days, blood was sampled and the total cholesterol value in serum was measured in a conventional manner.

[2] = Stability, 5 weeks at 45° C. and humidity of 80% (HPLC remaining rate); assay type: physicochemical; settings: after 5 weeks, humidity of 80%; for Remaining rate: 50400 min; for remaining at 840 h: solid, 80% humidity
Experimental: One gram each of CB3A, CK3A and various metal salts thereof was placed in a beaker and the beaker was allowed to stand for 5 weeks in a constant temperature and humidity bath controlled at a temperature of 45° C. and a humidity of 80%. After 5 weeks, a remaining rate of the compound was analyzed quantitatively with a high performance liquid chromatography "Tri rotar" manufactured by Nippon Bunko K. K. (Japan).
A0 = initial amount of the compound prior to standing in the constan
temperature and humidity bath
A1 = final amount of the compound after 5 weeks

mouse = experiment: Acute toxicity, mouse; assay type: in vivo
Text: (§1) The acute toxicity of the metal salt of CB3A and of CK3A was examined by orally or peritoneally administrating an aqueous solution or dispersion thereof the results are shown in Table 2.
(§2) a . . . per os (oral administration)
(§3) b . . . intraperitoneal injection

rat = experiment: Acute toxicity, rat; assay type: in vivo
Text: as §1, §2, §3

Acute toxicity, mouse = assay type: in vivo; settings: in vivo
Text: as §1, §2, §3

Acute toxicity, rat = assay type: in vivo; settings: in vivo
Text: as §1, §2, §3

| SMILES | stability [1] | water solubility [1] | Total Serum cholesterol lowering rate (serum cholesterol; 1.5 mg/kg/day) | Total Serum cholesterol lowering rate (serum cholesterol; 6 mg/kg/day) | hygroscopic property [1] | Remaining rate [2] | LD50 (mouse; intraperitoneal injection) | LD50 (mouse; per os (oral administration)) | LD50 (rat; intraperitoneal injection) | LD50 (rat; per os (oral administration)) | LD50 (Acute toxicity, mouse; ip, intraperitoneal injection) | LD50 (Acute toxicity, mouse; per os (oral administration)) | LD50 (Acute toxicity, rat; ip, intraperitoneal injection) | LD50 (Acute toxicity, rat; per os (oral administration)) | remaining at 840 h [2] |
| --- | --- | --- | --- | --- | --- | --- | --- | --- | --- | --- | --- | --- | --- | --- | --- |
| CCC(C)C(=O)OC1CCC=C2C=CC(C)C(CCC(CC(O)CC(=O)O)OP(=O)(O)O)C21 (centres unmarked) [CB3A-2K salt, Dipotassium salt of CB3A] | excellent | excellent | 19.1% | 34.2% | – | – | – | – | – | – | – | – | – | – | – |
| CCC(C)C(=O)OC1CCC=C2C=CC(C)C(CCC(CC(O)CC(=O)O)OP(=O)(O)O)C21 (centres unmarked) [CB3A-1.5Ca salt, Sesquicalcium salt of CB3A] | particularly excellent | – | 23.2% | 40.2% | no hygroscopic property | 97% | > 500 mg/kg | > 2000 mg/kg | > 500 mg/kg | > 2000 mg/kg | – | – | – | – | – |
| CCC(C)C(=O)OC1CC(C)C=C2C=CC(C)C(CCC(CC(O)CC(=O)OC)OP(=O)(O)O)C21 (centres unmarked) [CK3A methyl ester-Ca salt, Calcium salt of CK3A methyl ester] | particularly excellent | – | 24.9% | 39.2% | no hygroscopic property | – | – | – | – | – | – | – | – | – | – |
| CCC(C)C(=O)OC1CC(C)C=C2C=CC(C)C(CCC(CC(O)CC(=O)O)OP(=O)(O)O)C21 (centres unmarked) [CK3A-3K salt, Tripotassium salt of CK3A] | excellent | excellent | 18.9% | 34.7% | – | 85% | – | – | – | – | > 500 mg/kg | > 2000 mg/kg | > 500 mg/kg | > 2000 mg/kg | – |
| CCC(C)C(=O)OC1CCC=C2C=CC(C)C(CCC(CC(O)CC(=O)O)OP(=O)(O)O)C21 (centres unmarked) [CB3A-1.5Mg salt] | – | – | 21.1% | 36.3% | – | – | – | – | – | – | – | – | – | – | – |
| CCC(C)C(=O)OC1CC(C)C=C2C=CC(C)C(CCC(CC(O)CC(=O)O)OP(=O)(O)O)C21 (centres unmarked) [CK3A-Al salt, Aluminum salt of CK3A] | particularly excellent | – | 23.4% | 41.6% | no hygroscopic property | 98% | > 500 mg/kg | > 2000 mg/kg | > 500 mg/kg | > 2000 mg/kg | – | – | – | – | – |
| CCC(C)C(=O)OC1CCC=C2C=CC(C)C(CCC(CC(O)CC(=O)O)OP(=O)(O)O)C21 (centres unmarked) [CB3A-3Na salt, Trisodium salt of CB3A] | excellent | excellent | 18.5% | 34.3% | – | 82% | > 500 mg/kg | > 2000 mg/kg | > 500 mg/kg | > 2000 mg/kg | – | – | – | – | – |
| CCC(C)C(=O)OC1CC(C)C=C2C=CC(C)C(CCC(CC(O)CC(=O)OC)OP(=O)(O)O)C21 (centres unmarked) [CK3A methyl ester-2K salt, Dipotassium salt of CK3A methyl ester] | excellent | excellent | 18.7% | 34.7% | – | – | – | – | – | – | – | – | – | – | 83% |
| CCC(C)C(=O)OC1CCC=C2C=CC(C)C(CCC(CC(O)CC(=O)O)OP(=O)(O)O)C21 (centres unmarked) [CB3A-1K salt, Monopotassium salt of CB3A] | excellent | excellent | 19.6% | 33.7% | – | – | – | – | – | – | – | – | – | – | – |
| CCC(C)C(=O)OC1CCC=C2C=CC(C)C(CCC(CC(O)CC(=O)O)OP(=O)(O)O)C21 (centres unmarked) [CB3A-2Na salt] | – | – | – | – | – | 78% | – | – | – | – | – | – | – | – | – |
| CCC(C)C(=O)OC1CCC=C2C=CC(C)C(CCC(CC(O)CC(=O)OC)OP(=O)(O)O)C21 (centres unmarked) [CB3A methyl ester-2K salt, Dipotassium salt of CB3A methyl ester] | excellent | excellent | 19.5% | 33.8% | – | – | – | – | – | – | – | – | – | – | 84% |
| CCC(C)C(=O)OC1CCC=C2C=CC(C)C(CCC(CC(O)CC(=O)OC)OP(=O)(O)O)C21 (centres unmarked) [CB3A methyl ester-Ca salt, Calcium salt of CB3A methyl ester] | particularly excellent | – | 23.0% | 40.6% | no hygroscopic property | – | – | – | – | – | – | – | – | – | – |
| CCC(C)C(=O)OC1CC(C)C=C2C=CC(C)C(CCC(CC(O)CC(=O)O)OP(=O)(O)O)C21 (centres unmarked) [CK3A-1.5Mg salt] | – | – | 22.1% | 36.3% | – | – | – | – | – | – | – | – | – | – | – |
| CCC(C)C(=O)OC1CC(C)C=C2C=CC(C)C(CCC(CC(O)CC(=O)O)OP(=O)(O)O)C21 (centres unmarked) [CK3A-1.5Ca salt, Sesquicalcium salt of CK3A] | particularly excellent | – | 24.5% | 39.9% | no hygroscopic property | 96% | > 500 mg/kg | > 2000 mg/kg | > 500 mg/kg | > 2000 mg/kg | – | – | – | – | – |
| CCC(C)C(=O)OC1CCC=C2C=CC(C)C(CCC(CC(O)CC(=O)O)OP(=O)(O)O)C21 (centres unmarked) [CB3A-1.5Ba salt, Sesquibarium salt of CB3A] | particularly excellent | – | 21.3% | 36.6% | no hygroscopic property | – | – | – | – | – | – | – | – | – | – |
| CCC(C)C(=O)OC1CCC=C2C=CC(C)C(CCC(CC(O)CC(=O)O)OP(=O)(O)O)C21 (centres unmarked) [CB3A-3K salt, Tripotassium salt of CB3A] | excellent | excellent | 19.4% | 33.9% | – | – | – | – | – | – | > 500 mg/kg | > 2000 mg/kg | > 500 mg/kg | > 2000 mg/kg | – |
| CCC(C)C(=O)OC1CCC=C2C=CC(C)C(CCC(CC(O)CC(=O)O)OP(=O)(O)O)C21 (centres unmarked) [CB3A-1Na salt] | – | – | – | – | – | 74% | – | – | – | – | – | – | – | – | – |
| CCC(C)C(=O)OC1CC(C)C=C2C=CC(C)C(CCC(CC(O)CC(=O)O)OP(=O)(O)O)C21 (centres unmarked) [CK3A-3Na salt, Trisodium salt of CK3A] | excellent | excellent | 17.1% | 30.0% | – | – | > 500 mg/kg | > 2000 mg/kg | > 500 mg/kg | > 2000 mg/kg | – | – | – | – | – |
| CCC(C)C(=O)OC1CCC=C2C=CC(C)C(CCC(CC(O)CC(=O)O)OP(=O)(O)O)C21 (centres unmarked) [CB3A-Al salt, Aluminum salt of CB3A] | particularly excellent | – | 24.2% | 41.6% | no hydroscopic property | 98% | > 500 mg/kg | > 2000 mg/kg | > 500 mg/kg | > 2000 mg/kg | – | – | – | – | – |
| CCC(C)C(=O)OC1CC(C)C=C2C=CC(C)C(CCC(CC(O)CC(=O)O)OP(=O)(O)O)C21 (centres unmarked) [CK3A-1.5Ba salt, Sesquibarium salt of CK3A] | particularly excellent | – | 21.1% | 36.6% | no hygroscopic property | – | – | – | – | – | – | – | – | – | – |
